Reference: ChEMBL document CHEMBL5209578, “Flow cytometry transport assay for SLC2A2 using HEK293 JumpIN TRex SLC2A2 WT-OE cells” (2022)

Molecular target: T1, Solute carrier family 2, facilitated glucose transporter member 2 (Homo sapiens, UniProt P11168)
T1 sequence (P11168 whole entry): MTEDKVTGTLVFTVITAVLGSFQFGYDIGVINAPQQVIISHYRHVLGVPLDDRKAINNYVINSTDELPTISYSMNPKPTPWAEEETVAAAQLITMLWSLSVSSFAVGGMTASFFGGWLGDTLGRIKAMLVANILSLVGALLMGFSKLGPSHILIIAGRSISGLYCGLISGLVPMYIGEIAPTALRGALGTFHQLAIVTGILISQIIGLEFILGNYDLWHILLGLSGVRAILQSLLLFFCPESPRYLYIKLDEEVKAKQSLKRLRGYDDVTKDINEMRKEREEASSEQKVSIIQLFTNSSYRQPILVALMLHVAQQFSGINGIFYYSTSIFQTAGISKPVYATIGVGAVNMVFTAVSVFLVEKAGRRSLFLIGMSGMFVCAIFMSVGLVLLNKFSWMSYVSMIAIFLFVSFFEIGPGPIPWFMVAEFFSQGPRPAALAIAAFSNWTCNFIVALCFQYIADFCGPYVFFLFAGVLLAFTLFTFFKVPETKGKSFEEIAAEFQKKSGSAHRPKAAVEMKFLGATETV
Assay: Inhibition of the Glucose Transporter (GLUT2, SLC2A2) as assessed by a FRET based flow cytometry assay using a genetically-encoded biosensor for measuring free glucose (FLII12Pglu-700uDelta6) in HEK293 JumpIN TRex SLC2A2 WT-OE cells (PubChem AID: 1794829)
Assay type: functional, cell-based

EC50 [µM] | Structure (SMILES) | IC50 [µM]
– | O=C(Oc1cccc(F)c1OC(=O)c1cccc(O)c1)c1cccc(O)c1 | > 10
– | C=C1[C@@H](C)[C@H]2[C@H](Cc3ccccc3)NC(=O)[C@]23OC(=O)/C=C/[C@H](O)CCC[C@@H](C)C/C=C/[C@H]3[C@@H]1O [CYTOCHALASIN B] | > 10
527 | OC[C@H]1OC(O)[C@H](O)[C@@H](O)[C@@H]1O (stereo partly drawn) [DEXTROSE] | –
